From patent US20190031618A1, “BENZIMIDAZOLE DERIVATIVES USEFUL AS CB-1 INVERSE AGONISTS” (Janssen Pharmaceutica NV, priority 2015, published 2019)

What was measured:
[1] = target: Human CB1R (Cannabinoid receptor 1) (Homo sapiens, UniProt P21554); experiment: CB-1 in vitro cAMP (HTRF) assay; format: cell-based; details: HEK cells, cAMP HTRF, 250 nM forskolin; mean where tested more than once; read-out: CB1 HEK_cAMP EC50
Procedure, shortened: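 Intracellular cAMP from HTRF ratio (d2-cAMP vs Eu-cryptate anti-cAMP), converted to nM via per-plate standards, in stable human CB1R HEK-293 cells.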

[2] = target: Human CB2R (Cannabinoid receptor 2) (Homo sapiens, UniProt P34972); experiment: CB-2 in vitro cAMP (HTRF) assay; format: cell-based; details: HEK cells, cAMP HTRF, 250 nM forskolin; mean where tested more than once; read-out: CB2 HEK_cAMP EC50
Human CB2R (Cannabinoid receptor 2), sequence (P34972 whole entry): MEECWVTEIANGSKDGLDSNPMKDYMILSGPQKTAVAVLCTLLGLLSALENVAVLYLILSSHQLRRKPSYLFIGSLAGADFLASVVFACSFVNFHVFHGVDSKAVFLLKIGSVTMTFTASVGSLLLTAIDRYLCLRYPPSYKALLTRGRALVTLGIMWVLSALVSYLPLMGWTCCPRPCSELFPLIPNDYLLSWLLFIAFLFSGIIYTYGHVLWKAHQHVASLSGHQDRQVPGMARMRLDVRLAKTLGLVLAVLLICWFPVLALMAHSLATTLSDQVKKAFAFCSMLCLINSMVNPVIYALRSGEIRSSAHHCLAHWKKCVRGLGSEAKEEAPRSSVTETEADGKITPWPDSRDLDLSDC
Procedure, shortened: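 Competitive HTRF read-out (d2-labelled cAMP vs cryptate antibody) quantifies cAMP in stably transfected HEK-293 cells, seeded the day before at 4E5 cells/mL. Stimulation buffer: HBSS, 5 mM HEPES, 0.1% BSA, 0.5 mM IBMX; forskolin prepared at 1.5 μM in buffer; compounds serially diluted 1/3 in DMSO.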

Human CB1R (Cannabinoid receptor 1), sequence (P21554 whole entry): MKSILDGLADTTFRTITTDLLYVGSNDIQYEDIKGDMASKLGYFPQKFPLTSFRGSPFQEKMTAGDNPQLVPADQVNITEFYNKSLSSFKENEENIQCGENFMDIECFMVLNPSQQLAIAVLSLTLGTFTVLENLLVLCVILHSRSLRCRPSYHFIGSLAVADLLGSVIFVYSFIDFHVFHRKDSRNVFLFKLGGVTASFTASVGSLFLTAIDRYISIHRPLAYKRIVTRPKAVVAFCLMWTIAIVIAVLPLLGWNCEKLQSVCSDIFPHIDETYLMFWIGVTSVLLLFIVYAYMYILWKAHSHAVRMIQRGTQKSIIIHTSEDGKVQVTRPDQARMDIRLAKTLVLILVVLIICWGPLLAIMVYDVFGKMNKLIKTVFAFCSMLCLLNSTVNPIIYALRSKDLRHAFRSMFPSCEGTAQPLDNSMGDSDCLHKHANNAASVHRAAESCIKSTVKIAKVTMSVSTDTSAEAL

SMILES	EC50 [1]	EC50 [2]
O=S(=O)(N1CCC(n2c(C3CCCO3)nc3ccc(C(c4ccc(Cl)cc4)c4ccc(Cl)cc4)cc32)CC1)C(F)(F)F (stereo not drawn) [Example 271]	2.1 nM	> 10000 nM
O=S(=O)(c1ccccc1C(F)(F)F)N1CCC(n2c(C3CC3)nc3ccc(C(c4ccc(Cl)cc4)c4ccc(Cl)cc4)cc32)CC1 [Example 272]	10.8 nM	> 10000 nM
NC(=O)CCC(=O)N1CCC(n2c(C3CC3)nc3ccc(C(c4ccc(Cl)cc4)c4ccc(Cl)cc4)cc32)CC1 [Example 273]	33.6 nM	9600 nM
NS(=O)(=O)N1CCC(n2c(C3CC3)nc3ccc(C(c4ccc(Cl)cc4)c4ccc(Cl)cc4)cc32)CC1 [Example 274]	133 nM	> 10000 nM
COc1ccccc1S(=O)(=O)N1CCC(n2c(C3CC3)nc3ccc(C(c4ccc(Cl)cc4)c4ccc(Cl)cc4)cc32)CC1 [Example 275]	1.6 nM	> 10000 nM
NC(=O)CC(=O)N1CCC(n2c(C3CC3)nc3ccc(C(c4ccc(Cl)cc4)c4ccc(Cl)cc4)cc32)CC1 [Example 278]	50.5 nM	> 10000 nM
O=S(=O)(c1ccc(OC(F)(F)F)cc1)N1CCC(n2c(C3CC3)nc3ccc(C(c4ccc(Cl)cc4)c4ccc(Cl)cc4)cc32)CC1 [Example 279]	32.2 nM	> 10000 nM
O=S(=O)(c1ccc(C(F)(F)F)cc1)N1CCC(n2c(C3CC3)nc3ccc(C(c4ccc(Cl)cc4)c4ccc(Cl)cc4)cc32)CC1 [Example 280]	10.5 nM	> 10000 nM
COc1ccc(S(=O)(=O)N2CCC(n3c(C4CC4)nc4ccc(C(c5ccc(Cl)cc5)c5ccc(Cl)cc5)cc43)CC2)cc1 [Example 281]	12.5 nM	> 10000 nM
O=S(=O)(c1ccc(F)cc1)N1CCC(n2c(C3CC3)nc3ccc(C(c4ccc(Cl)cc4)c4ccc(Cl)cc4)cc32)CC1 [Example 282]	7.3 nM	> 10000 nM
O=S(=O)(c1ccccc1)N1CCC(n2c(C3CC3)nc3ccc(C(c4ccc(Cl)cc4)c4ccc(Cl)cc4)cc32)CC1 [Example 283]	3.6 nM	960 nM
O=S(=O)(c1cccc(C(F)(F)F)c1)N1CCC(n2c(C3CC3)nc3ccc(C(c4ccc(Cl)cc4)c4ccc(Cl)cc4)cc32)CC1 [Example 284]	5.7 nM	> 10000 nM
O=S(=O)(N1CCC(n2c(C3CCCO3)nc3ccc(C(O)(c4ccc(Cl)cc4)c4ccc(Cl)cc4)cc32)CC1)C(F)(F)F (stereo not drawn) [Example 285]	3.4 nM	> 10000 nM
COc1cc(C(c2ccc(Cl)cc2)c2ccc(Cl)cc2)cc2c1nc(C1CC1)n2C1CCN(S(=O)(=O)C(F)(F)F)CC1 [Example 287]	2.4 nM	4590 nM
O=S(=O)(N1CCC(Cn2c(C3CCC3)nc3ccc(C(c4ccc(Cl)cc4)c4ccc(Cl)cc4)cc32)CC1)C(F)(F)F [Example 288]	2.3 nM	> 10000 nM
CC(C)(C)c1nc2ccc(C(c3ccc(Cl)cc3)c3ccc(Cl)cc3)cc2n1C1CCN(S(=O)(=O)C(F)(F)F)CC1 [Example 291]	2260 nM	> 10000 nM
CC(C)(C)c1nc2ccc(C(O)(c3ccc(Cl)cc3)c3ccc(Cl)cc3)cc2n1C1CCN(S(=O)(=O)C(F)(F)F)CC1 [Example 292]	2890 nM	> 10000 nM
O=S(=O)(N1CCC(n2c(CO)nc3ccc(C(O)(c4ccc(Cl)cc4)c4ccc(Cl)cc4)cc32)CC1)C(F)(F)F [Example 293]	7430 nM	> 10000 nM
O=S(=O)(N1CCC(Cn2c(C3CC3)nc3ccc(C(O)(c4ccc(Cl)cc4)c4ccc(Cl)cc4)cc32)CC1)C(F)(F)F [Example 294]	4.6 nM	> 10000 nM
O=S(=O)(N1CCC(O)(Cn2c(C3CC3)nc3ccc(C(c4ccc(Cl)cc4)c4ccc(Cl)cc4)cc32)CC1)C(F)(F)F [Example 295]	5 nM	9000 nM
CCc1nc2ccc(C(c3ccc(Cl)cc3)c3ccc(Cl)cc3)cc2n1C1Cc2ccccc2C1 [Example 297]	615 nM	> 10000 nM
Clc1ccc(C(c2ccc(Cl)cc2)c2ccc3ncn(C4Cc5ccccc5C4)c3c2)cc1 [Example 298]	906 nM	9000 nM
CC(C(O)c1ccccc1)n1c(C2CC2)nc2ccc(C(c3ccc(Cl)cc3)c3ccc(Cl)cc3)cc21 (stereo not drawn) [Example 299]	578 nM	1030 nM
Clc1ccc(C(c2ccc(Cl)cc2)c2ccc3nc(C4CC4)n(C4Cc5ccccc5C4)c3c2)cc1 [Example 300]	163 nM	> 10000 nM
O=S(=O)(N1CCC(n2c(C3CC3)nc3ccc(C(O)(c4ccc(Cl)cc4)c4ccc(Cl)cc4)cc32)CC1)C(F)(F)F [Example 303]	17.4 nM	> 10000 nM
CCc1nc2ccc(C(O)(c3ccc(Cl)cc3)c3ccc(Cl)cc3)cc2n1C1CCN(S(=O)(=O)C(F)(F)F)CC1 [Example 308]	63.6 nM	> 10000 nM
FC(F)(F)c1ccc(CCn2c(C3CC3)nc3ccc(C(c4ccc(Cl)cc4)c4ccc(Cl)cc4)cc32)cc1 [Example 309]	3.4 nM	5200 nM

SMILES	EC50 [1]	EC50 [2]
CCc1nc2ccc(C(c3ccc(Cl)cc3)c3ccc(Cl)cc3)cc2n1CCc1cccc(Cl)c1 [Example 311]	17.2 nM	8600 nM
CCc1nc2ccc(C(c3ccc(Cl)cc3)c3ccc(Cl)cc3)cc2n1CCc1ccc(C(F)(F)F)cc1 [Example 314]	20.1 nM	2790 nM
O=S(=O)(N1CCC(n2c(C3CCC3)nc3ccc(C(O)(c4ccc(Cl)cc4)c4ccc(Cl)cc4)cc32)CC1)C(F)(F)F [Example 319]	22.5 nM	> 10000 nM
O=S(=O)(N1CCC(n2c(C3CC3)nc3ccc(C(c4ccc(Cl)cc4)c4ccc5c(c4)OCO5)cc32)CC1)C(F)(F)F (stereo not drawn) [Example 321]	6.2 nM	4030 nM
O=S(=O)(N1CCC(Cn2cnc3ccc(C(c4ccc(Cl)cc4)c4nccs4)cc32)CC1)C(F)(F)F (stereo not drawn) [Example 322]	621 nM	> 10000 nM
CCc1nc2ccc(C(c3ccc(Cl)cc3)c3nccs3)cc2n1CC1CCN(S(=O)(=O)C(F)(F)F)CC1 (stereo not drawn) [Example 323]	16.5 nM	> 10000 nM
O=S(=O)(N1CCC(Cn2c(C3CC3)nc3ccc(C(c4ccc(Cl)cc4)c4nccs4)cc32)CC1)C(F)(F)F (stereo not drawn) [Example 324]	10.2 nM	3880 nM
CC(Cc1ccc(Cl)cc1)n1c(C(F)F)nc2ccc(C(c3ccc(Cl)cc3)c3nccs3)cc21 (stereo not drawn) [Example 329]	379 nM	> 10000 nM
CCOC(=O)N1CCC(n2c(CC)nc3ccc(C(c4ccc(Cl)cc4)c4ccc(Cl)cc4)cc32)CC1 [Example 332]	14.7 nM	4700 nM
Clc1ccc(CCn2c(C3CC3)nc3ccc(C(c4ccc(Cl)cc4)c4nccs4)cc32)cc1 (stereo not drawn) [Example 338]	59.7 nM	4000 nM
OC(c1ccc(Cl)cc1)(c1ccc2nc(CC(F)(F)F)n(CCc3cccc(Cl)c3)c2c1)c1nccs1 (stereo not drawn) [Example 339]	2410 nM	> 10000 nM
FC(F)(F)Cc1nc2ccc(C(c3ccc(Cl)cc3)c3nccs3)cc2n1CCc1cccc(Cl)c1 (stereo not drawn) [Example 340]	1440 nM	> 10000 nM
OC(c1ccc(Cl)cc1)(c1ccc2nc(C3CC3)n(C3CCc4ccccc4C3)c2c1)c1nccs1 (stereo not drawn) [Example 341]	1330 nM	> 10000 nM
Clc1ccc(C(c2ccc3nc(C4CC4)n(C4CCc5ccccc5C4)c3c2)c2nccs2)cc1 (stereo not drawn) [Example 342]	184 nM	> 10000 nM
Cc1nc2ccc(C(c3ccc(Cl)cc3)c3nccs3)cc2n1C1Cc2ccccc2C1 (stereo not drawn) [Example 361]	2020 nM	> 10000 nM
Clc1ccc(C(c2ccc3nc(C4CC4)n(C4Cc5ccccc5C4)c3c2)c2nccs2)cc1 (stereo not drawn) [Example 362]	212 nM	> 10000 nM
OCc1nc2ccc(C(c3ccc(Cl)cc3)c3nccs3)cc2n1-c1cccc(Cl)c1 (stereo not drawn) [Example 374]	1120 nM	> 10000 nM
Clc1ccc(C(c2ccc3nc(-c4ccsc4)n(-c4cccc(Cl)c4)c3c2)c2nccs2)cc1 (stereo not drawn) [Example 375]	755 nM	> 10000 nM
Clc1ccc(C(c2ccc3nc(-c4ccoc4)n(-c4cccc(Cl)c4)c3c2)c2nccs2)cc1 (stereo not drawn) [Example 376]	441 nM	272 nM
Clc1ccc(C(c2ccc3nc(-c4ccco4)n(-c4cccc(Cl)c4)c3c2)c2nccs2)cc1 (stereo not drawn) [Example 377]	> 10000 nM	> 10000 nM
O=S(=O)(N1CCC(n2c(C3CC3)nc3ccc(C(c4ccc(Cl)cc4)c4nccs4)cc32)CC1)C(F)(F)F (stereo not drawn) [Example 384]	12 nM	> 10000 nM
O=S(=O)(N1CCC(n2c(-c3ccccn3)nc3ccc(C(c4ccc(Cl)cc4)c4nccs4)cc32)CC1)C(F)(F)F (stereo not drawn) [Example 385]	524 nM	> 10000 nM
Cc1nc2ccc(C(c3ccc(Cl)cc3)c3nccs3)cc2n1C1CCN(S(=O)(=O)C(F)(F)F)CC1 (stereo not drawn) [Example 386]	22 nM	> 10000 nM
CCOC(=O)c1nc2ccc(C(c3ccc(Cl)cc3)c3nccs3)cc2n1C1CCN(S(=O)(=O)C(F)(F)F)CC1 (stereo not drawn) [Example 387]	551 nM	> 10000 nM
O=S(=O)(N1CCC(n2c(-c3ccncc3)nc3ccc(C(c4ccc(Cl)cc4)c4nccs4)cc32)CC1)C(F)(F)F (stereo not drawn) [Example 390]	242 nM	> 10000 nM
O=S(=O)(N1CCC(n2c(C3CCC3)nc3ccc(C(c4ccc(Cl)cc4)c4nccs4)cc32)CC1)C(F)(F)F (stereo not drawn) [Example 391]	60 nM	> 10000 nM
O=S(=O)(N1CCC(n2c(-c3cccnc3)nc3ccc(C(c4ccc(Cl)cc4)c4nccs4)cc32)CC1)C(F)(F)F (stereo not drawn) [Example 393]	28 nM	63 nM
